Results reported in US8877908B2, “Stimulus-responsive apta chelamers” (The Administrators of the Tulane Educational Fund, priority 2008, dated 2014).
Like-named read-outs stand apart in the source and are kept apart here.

Experiments:
[1] = target: thrombin (Homo sapiens, UniProt P00734); conditions: literature; cited from earlier work
[2] = target: T1, bovine trypsin (Bos taurus, UniProt P00760); experiment: Fluorescence anisotropy titration of fluorescein-labelled ODNs with increasing trypsin; format: binding; conditions: for change of trypsin affinity on lowering salt to 5 mM KCl, 25 mM Hepes, pH 7.4: low salt versus high salt; for Kd: preformed quadruplex, 2 nM ODN
T1 construct: purchased Sigma Aldrich; host or cells: bovine pancreas
T1 sequence (P00760 24-246): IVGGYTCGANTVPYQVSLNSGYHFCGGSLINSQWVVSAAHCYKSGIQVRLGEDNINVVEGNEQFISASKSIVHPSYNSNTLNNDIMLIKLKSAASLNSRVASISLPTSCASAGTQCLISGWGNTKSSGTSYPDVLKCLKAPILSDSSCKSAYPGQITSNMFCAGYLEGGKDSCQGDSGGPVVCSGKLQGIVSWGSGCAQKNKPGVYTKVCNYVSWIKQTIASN
Procedure: The next step was to determine whether the intramolecular quadruplex conformation of AC 1 leads to enhanced affinity towards trypsin as a result of bidentate binding (FIG. 15, pathway A). […] AC 1 and ODNs 2 through 4 were first incubated in the presence of potassium cations to induce the quadruplex fold. The preformed quadruplexes were then incubated with increasing concentrations of trypsin at 25° C. (25 mM KCl, 200 mM NaCl, 25 mM Hepes, pH 7.4) for 30 min. Preliminary fluorescence anisotropy studies were conducted to ascertain that equilibrium was reached after 30 min and that there was no significant quenching of the fluorescein emission. The anisotropy associated with the fluorescein emission was followed at 525 nm (excitation at 495 nm). The resultant binding isotherms (FIG. 14) were fitted using non-linear regression to a 1:1 binding stoichiometry. […] In fact, the dissociation constant was determined to be 8.1×10^−7 M, a value that indicates a greater than 100 and 30 fold binding enhancement when compared to monodentate controls ODN 3 and ODN 2, respectively. […] This dissociation constant is attributed to non-specific interactions between bovine trypsin and ODN 4, since trypsin (pI=10.5) is positively charged at pH=7.4 and thus can potentially associate with the negatively charged DNA backbone. Support for such non-specific interactions comes from incubation of trypsin with ODN 4 where the concentration of salts were decreased to only 5 mM KCl, 25 mM Hepes, pH 7.4 (see, e.g., FIG. 23).
Immediately prior to each fluorescence polarization experiment, fresh stock solutions of trypsin were made in Hepes buffer (20 mM KCl, 200 mM NaCl, 25 mM Hepes, pH 7.4). Concentration of the trypsin in the stock solutions were determined using ultra-violet absorbance at 280 nm (ε=37669 M^−1cm^−1). Serial dilutions from the stock solution of trypsin were made into eppendorf tubes (spanning a range from 1×10^−9 to 1×10^−3M). To these trypsin-containing tubes were added aliquots of ODNs, such that the total concentration of ODNs in each eppendorf tube was 2 nM. After gently agitating, 150 uL from each eppendorf was transferred to respective borosilicate glass culture tubes and the tubes were allowed to equilibrate for 30 minutes at 25° C. (preliminary fluorescence anisotropy studies were conducted to ascertain that equilibrium was reached after 30 min and that there was no significant quenching of the fluorescein emission). Fluorescence polarization at 25° C. was determined on a Molecular Probes Beacon 2000 Fluorescence Polarization Instrument, using 495 and 525 nm narrow band pass filters for excitation and emission, respectively. Values of millipolarization (mP) from the Beacon 2000 were converted to millianisotropy (mA) using equation 1, where A is the anisotropy value, and P is the observed polarization.
1:1 (trypsin:ODN) binding mode: Anisotropy was plotted against trypsin (receptor protein) concentration and fitted to Equation 2 (a single-site model without receptor depletion), wherein Af is the anisotropy of the unbound ODN, Ab is the anisotropy of the bound ODN, Or is the total added ODN concentration (in M units), and Kd is the dissociation constant. Non-linear regression analysis using Origin 8.0 software was used for fitting the experimental data.
Cooperative binding mode: Binding equilibrium best described as cooperative binding was fitted to the Hill equation (Equation 3), where the fluorescence quantum yield of fluorescein is constant and the ODN substrate is limiting. R is the total protein concentration, R1/2 (or [trypsin]1/2) is the protein concentration required for half-maximal binding, and h is the Hill coefficient.

[3] = target: T2, streptavidin (Streptomyces avidinii, UniProt P22629); experiment: Streptavidin-immobilized microplate assay, hemin/H2O2 oxidation of ABTS, absorbance at 414 nm; conditions: 5 μM ODN with 5 μM hemin, 1 h incubation, washed, ABTS 2 mM
T2 construct: purchased Thermo Fisher Scientific (NUNC)
Procedure: As shown schematically in FIG. 28, streptavidin-immobilized, NUNC 96 well microplates were obtained from Thermo Fisher Scientific. Each well was pre-washed three times with 100 μL of PBS buffer (20 mM NaH2PO4, 30 mM Na2HPO4, 100 mM NaCl, pH 7.4). To each well, 100 μL of sample ODNs (5 μM, previously annealed from 95° C.) with hemin (5 μM) in Hepes buffer (50 mM HEPES, 20 mM KCl, 200 mM NaCl, 1% DMSO, 0.05% Triton X-100, pH 8.0) was incubated for one hour with gentle agitation. Sample ODN solutions were then removed by inversion, and each well washed three times with PBS buffer. Plate wells were then refilled with 98.5 μL of the Hepes buffer containing ABTS (2,2′-azino-bis(3-ethylbenzthiazoline-6-sulphonic acid)). Hydrogen peroxide (2 mM) was then introduced to each well bringing the total assay volume to 100 μL and total ABTS concentration to 2 mM. Visible light absorbance at 414 nm was then immediately followed on a Molecular Devices SpectraMax 190 microplate reader (FIG. 27).

[4] = 5 mM KCl, 25 mM Hepes, pH 7.4, read-out: dissociation constant (Kd) for trypsin, low-salt conditions
[5] = high salt (20 or 25 mM KCl, 200 mM NaCl, 25 mM Hepes, pH 7.4), 25° C., 1:1 fit, read-out: dissociation constant (Kd) for trypsin

T2 sequence (P22629 25-183): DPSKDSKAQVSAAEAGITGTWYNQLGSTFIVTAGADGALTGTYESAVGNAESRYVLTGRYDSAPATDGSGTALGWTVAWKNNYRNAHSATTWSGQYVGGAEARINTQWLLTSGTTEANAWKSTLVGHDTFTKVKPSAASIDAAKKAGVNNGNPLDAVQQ

Substance | change of trypsin affinity on lowering salt to 5 mM KCl, 25 mM Hepes, pH 7.4 [2] | Kd [2, 4] | Kd [2, 5] | also measured
thrombin binding aptamer: core sequence 5′-GGTTGGTGTGGTTGG-3′ (SEQ ID NO:6) |  |  |  | dissociation constant (Kd) of complex with thrombin [1]: micromolar range
AC 1 (TTGGTTGGTGTGGTTGGT; 5' dT fluorescein conjugate, ba and ipt arms attached, further chemistry not given here) | only slight change in affinity | 2.8 µM | 0.81 µM | potency of quadruplex form in binding trypsin relative to double helical structure (duplex 1:5) ([2]; Kd of quadruplex versus [trypsin]1/2 of duplex): about 20 times; binding enhancement compared to monodentate control ODN 2 ([2]; ratio of Kd values, high salt): > 30 fold; binding enhancement compared to monodentate control ODN 3 ([2]; ratio of Kd values, high salt): greater than 100 fold
ODN 4: 5′-TTGGTTGGTGTGGTTGGT-3′, no arms, 5′ terminal dT bearing fluorescein; negative control (listed as DNA, chemistry not fully specified) | significant decrease in the Kd | 31 µM | 2900 µM | 
ODN 2 (TTGGTTGGTGTGGTTGGT; 5' ba arm attached, fluorescein-dT conjugate, further chemistry not given here) |  |  | 29 µM | 
ODN 3 (TTGGTTGGTGTGGTTGGT; 3' ipt arm attached, fluorescein-dT conjugate, further chemistry not given here) |  |  | 90 µM | 
AC-X1: hemin binding aptamer core (SEQ ID NO:9) with biotin as small molecule handle for streptavidin (TGGGTAGGGCGGGTTGGGT; DNA, backbone and methylation of C not given here; biotin tethered via linker) |  |  |  | absorbance change at 414 nm versus control HBA well [3]: greater absorbance change
